# According to US20240002344A1, “COMPOUNDS, COMPOSITIONS AND METHODS FOR HISTONE LYSINE DEMETHYLASE INHIBITION” (FibroGen, Inc., priority 2020, published 2024):
# Assays:
# recombinant human KDM5B = biological target: T1, recombinant human KDM5B (Homo sapiens, UniProt Q9UGL1); assay: 14CO2 capture enzymatic assay (decarboxylation of [1-14C] αKG), KDM5B; format: biochemical; conditions: 10 μM [1-14C] αKG, 90 μM non-labeled αKG, 50 μM peptide substrate, 37° C., 1 hour, final 1% DMSO
# T1 sequence (Q9UGL1 374-755 limits assumed): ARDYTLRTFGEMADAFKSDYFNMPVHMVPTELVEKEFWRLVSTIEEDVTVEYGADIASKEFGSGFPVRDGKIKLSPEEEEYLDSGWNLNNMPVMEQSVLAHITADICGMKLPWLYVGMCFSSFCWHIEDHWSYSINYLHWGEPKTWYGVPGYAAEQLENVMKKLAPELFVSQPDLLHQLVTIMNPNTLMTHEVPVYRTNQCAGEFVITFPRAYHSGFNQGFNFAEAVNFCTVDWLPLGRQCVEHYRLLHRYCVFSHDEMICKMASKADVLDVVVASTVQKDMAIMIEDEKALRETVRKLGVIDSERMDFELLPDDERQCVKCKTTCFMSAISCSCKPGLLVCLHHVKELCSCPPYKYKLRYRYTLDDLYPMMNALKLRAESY
# Method in brief: (§1)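 Truncated recombinant human KDM5B (H3K4me3 peptide) or KDM4A (H3K9me3 peptide), 50 μM peptide, with 10 μM [1-14C]αKG plus 90 μM unlabeled αKG, 10 μM Fe(SO4), 2 mM ascorbate in pH 7.4 HEPES, 1 h at 37 °C, 1% DMSO. Released 14CO2 trapped on Ba(OH)2 filter; IC50 by non-linear fit.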
# recombinant human KDM4A = biological target: T2, recombinant human KDM4A (Homo sapiens, UniProt O75164); assay: 14CO2 capture enzymatic assay (decarboxylation of [1-14C] αKG), KDM4A; format: biochemical; conditions: 10 μM [1-14C] αKG, 90 μM non-labeled αKG, 50 μM peptide substrate, 37° C., 1 hour, final 1% DMSO
# T2 construct: made in house
# T2 sequence (O75164 1-359 limits assumed): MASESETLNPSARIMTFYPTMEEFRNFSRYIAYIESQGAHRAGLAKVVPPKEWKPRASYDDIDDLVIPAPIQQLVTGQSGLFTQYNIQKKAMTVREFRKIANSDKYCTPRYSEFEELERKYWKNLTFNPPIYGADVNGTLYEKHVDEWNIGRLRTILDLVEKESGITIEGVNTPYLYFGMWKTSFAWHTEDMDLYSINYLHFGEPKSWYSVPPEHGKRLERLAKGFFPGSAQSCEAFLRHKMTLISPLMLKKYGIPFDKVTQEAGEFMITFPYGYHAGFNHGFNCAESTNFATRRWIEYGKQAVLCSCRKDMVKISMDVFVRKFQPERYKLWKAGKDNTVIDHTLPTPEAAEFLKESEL
# Method in brief: as §1
Compound,IC50 (recombinant human KDM5B) [nM],IC50 (recombinant human KDM4A) [nM]
"N#Cc1cc(Cc2c(Cl)cc(Cl)cc2Cl)nc(C(=O)CCC(=O)O)c1O [Example 144, 4-[4-Cyano-3-hydroxy-6-(2,4,6-trichloro-benzyl)-pyridin-2-yl]-4-oxo-butyric acid]",180,28000
"Cc1ccc(Cl)c(-c2cc(C#N)c(O)c(C(=O)CCC(=O)O)n2)c1 [Example 102, 4-[6-(2-Chloro-5-methyl-phenyl)-4-cyano-3-hydroxy-pyridin-2-yl]-4-oxo-butyric acid]",400,> 40000
"N#Cc1cc(Cc2ccc(F)cc2)nc(C(=O)CCC(=O)O)c1O [Example 40, 4-[4-Cyano-6-(4-fluoro-benzyl)-3-hydroxy-pyridin-2-yl]-4-oxo-butyric acid]",60,17000
"N#Cc1cc(Cc2c(Cl)cc(C(F)(F)F)cc2Cl)nc(C(=O)CCC(=O)O)c1O [Example 145, 4-[4-Cyano-6-(2,6-dichloro-4-trifluoromethyl-benzyl)-3-hydroxy-pyridin-2-yl]-4-oxo-butyric acid]",360,> 40000
"N#Cc1cc(Cc2cccc(OC(F)(F)F)c2)nc(C(=O)CCC(=O)O)c1O [Example 48, 4-[4-Cyano-3-hydroxy-6-(3-trifluoromethoxy-benzyl)-pyridin-2-yl]-4-oxo-butyric acid]",310,> 40000
"N#Cc1cc(Cc2ccc(-c3ccccc3)cc2)nc(C(=O)CCC(=O)O)c1O [Example 50, 4-(6-Biphenyl-4-ylmethyl-4-cyano-3-hydroxy-pyridin-2-yl)-4-oxo-butyric acid]",390,> 40000
"N#Cc1cc(F)ccc1-c1cc(C#N)c(O)c(C(=O)CCC(=O)O)n1 [Example 87, 4-[4-Cyano-6-(2-cyano-4-fluoro-phenyl)-3-hydroxy-pyridin-2-yl]-4-oxo-butyric acid]",280,> 40000
"Cc1cccc(Cl)c1Cc1cc(C#N)c(O)c(C(=O)CCC(=O)O)n1 [Example 123, 4-[6-(2-Chloro-6-methyl-benzyl)-4-cyano-3-hydroxy-pyridin-2-yl]-4-oxo-butyric acid]",120,3000
"COc1ccccc1-c1cc(C#N)c(O)c(C(=O)CCC(=O)O)n1 [Example 14, 4-[4-Cyano-3-hydroxy-6-(2-methoxy-phenyl)-pyridin-2-yl]-4-oxo-butyric acid]",470,> 40000
"Cc1cc(C(F)(F)F)ccc1-c1cc(C#N)c(O)c(C(=O)CCC(=O)O)n1 [Example 96, 4-[4-Cyano-3-hydroxy-6-(2-methyl-4-trifluoromethyl-phenyl)-pyridin-2-yl]-4-oxo-butyric acid]",310,> 40000
"Cc1cccc(Cc2cc(C#N)c(O)c(C(=O)CCC(=O)O)n2)c1 [Example 37, 4-[4-Cyano-3-hydroxy-6-(3-methyl-benzyl)-pyridin-2-yl]-4-oxo-butyric acid]",60,> 40000
"N#Cc1cc(-c2cccc(Cl)c2)nc(C(=O)CCC(=O)O)c1O [Example 23, 4-[6-(3-Chloro-phenyl)-4-cyano-3-hydroxy-pyridin-2-yl]-4-oxo-butyric acid]",150,≥ 40000
"O=C(O)CCC(=O)c1nc(Br)cc(Br)c1O [Example 1, 4-(4,6-Dibromo-3-hydroxy-pyridin-2-yl)-4-oxo-butyric acid]",450,36000
"Cc1noc(C)c1Cc1cc(C#N)c(O)c(C(=O)CCC(=O)O)n1 [Example 154, 4-[4-Cyano-6-(3,5-dimethyl-isoxazol-4-ylmethyl)-3-hydroxy-pyridin-2-yl]-4-oxo-butyric acid]",260,1400
"N#Cc1cc(-c2ccc(-c3ccccc3)c3ccccc23)nc(C(=O)CCC(=O)O)c1O [Example 111, 4-[4-Cyano-3-hydroxy-6-(4-phenyl-naphthalen-1-yl)-pyridin-2-yl]-4-oxo-butyric acid]",320,> 40000
"Cc1cccc(-c2cc(C#N)c(O)c(C(=O)CCC(=O)O)n2)c1C [Example 92, 4-[4-Cyano-6-(2,3-dimethyl-phenyl)-3-hydroxy-pyridin-2-yl]-4-oxo-butyric acid]",370,> 40000
"Cc1ccc(-c2cc(C#N)c(O)c(C(=O)CCC(=O)O)n2)c(C)c1 [Example 93, 4-[4-Cyano-6-(2,4-dimethyl-phenyl)-3-hydroxy-pyridin-2-yl]-4-oxo-butyric acid]",330,> 40000
"COc1cccc(C(F)(F)F)c1Cc1cc(C#N)c(O)c(C(=O)CCC(=O)O)n1 [Example 61, 4-[4-Cyano-3-hydroxy-6-(2-methoxy-6-trifluoromethyl-benzyl)-pyridin-2-yl]-4-oxo-butyric acid]",570,> 40000
"N#Cc1cc(Cc2ccccc2C(F)(F)F)nc(C(=O)CCC(=O)O)c1O [Example 41, 4-[4-Cyano-3-hydroxy-6-(2-trifluoromethyl-benzyl)-pyridin-2-yl]-4-oxo-butyric acid]",150,22000
"Cc1ccccc1-c1cc(C#N)c(O)c(C(=O)CCC(=O)O)n1 [Example 71, 4-(4-Cyano-3-hydroxy-6-o-tolyl-pyridin-2-yl)-4-oxo-butyric acid]",310,> 40000
"N#Cc1cc(-c2ccccc2)cc(C(=O)CCC(=O)O)c1O [Example 104, 4-(5-Cyano-4-hydroxy-biphenyl-3-yl)-4-oxo-butyric acid]",460,> 40000
"N#Cc1cc(-c2ccc(F)c3ccccc23)nc(C(=O)CCC(=O)O)c1O [Example 109, 4-[4-Cyano-6-(4-fluoro-naphthalen-1-yl)-3-hydroxy-pyridin-2-yl]-4-oxo-butyric acid]",250,> 40000
"CN(C(=O)c1ccccc1)c1cc(C#N)c(O)c(C(=O)CCC(=O)O)n1 [Example 159, 4-[6-(Benzoyl-N-methyl-amino)-4-cyano-3-hydroxy-pyridin-2-yl]-4-oxo-butyric acid]",990,> 40000
"COc1ccc(Oc2cc(C#N)c(O)c(C(=O)CCC(=O)O)c2)cc1 [Example 141, 4-[3-Cyano-2-hydroxy-5-(4-methoxy-phenoxy)-phenyl]-4-oxo-butyric acid]",250,> 40000
"N#Cc1cc(-c2cc(F)ccc2Cl)nc(C(=O)CCC(=O)O)c1O [Example 108, 4-[6-(2-Chloro-5-fluoro-phenyl)-4-cyano-3-hydroxy-pyridin-2-yl]-4-oxo-butyric acid]",270,> 40000
"N#Cc1cc(Cc2cccc3ccccc23)nc(C(=O)CCC(=O)O)c1O [Example 34, 4-(4-Cyano-3-hydroxy-6-naphthalen-1-ylmethyl-pyridin-2-yl)-4-oxo-butyric acid]",60,12000
"COc1cc(Cl)c(Cc2cc(C#N)c(O)c(C(=O)CCC(=O)O)n2)c(Cl)c1 [Example 147, 4-[4-Cyano-6-(2,6-dichloro-4-methoxy-benzyl)-3-hydroxy-pyridin-2-yl]-4-oxo-butyric acid]",160,> 40000
"N#Cc1cc(Cc2c(Cl)ccc(F)c2Cl)nc(C(=O)CCC(=O)O)c1O [Example 149, 4-[4-Cyano-6-(2,6-dichloro-3-fluoro-benzyl)-3-hydroxy-pyridin-2-yl]-4-oxo-butyric acid]",70,3700
